Measured values taken from patent US11311525B2, “Use of alpha 7 nicotinic acetylcholine receptor agonists” (Novartis AG, priority 2013, dated 2022).

Columns and labels:
brain tMHA levels = assay: Brain tele-methylhistamine (tMHA) levels by LC-MS; assay type: in vivo, mice; details: oral, 30 minutes after administration
Method: Histamine (HA) is released all over the brain by tuberomammillary nucleus neurons. […] HA is metabolized by histamine-N-methyltransferase to tele-methylhistamine (tMHA) in some tissues, including brain.
Mice (n=8) were treated during the first hour of the lights-on period and sacrificed 30 min later. Brain tissue was collected and subjected to LC-MS analysis (Croyal et al. Analytical Biochemistry, 2011, 409:28-36) to determine t-MHA levels.

Cynomolgus monkey = assay: Signs for emergence from ketamine/sevoflurane anesthesia in nonhuman primate (PET experiment); assay type: in vivo
Method: Said experiment was performed on the α7 nAChR in the non-human primate (NHP) brain.
An animal (Cynomolgus monkey, male, 5.8 kg) was anesthesized for the entire duration of the PET experiment, i.e. for approximately 7.5 hours. Due to the nature of these experiments, it is crucial that anesthesia is maintained.
General anesthesia was induced by i.m. injection of ketamine hydrochloride (10 mg/kg, Ketaminol, Intervet AB). The animal was intubated and general anesthesia was maintained by inhalational administration of sevoflurane (1.5-8%, Abbott Scandinavia AB). Body temperature was maintained by Bair Hugger Model 505 (Arizant Healthcare Inc., Eden Prairie, Minn., USA). ECG, pulse, blood pressure, respiration rate, oxygen saturation and tidal CO2 level were monitored continuously during the experiment. Ventilation of the animal (breathing frequency and volume) was controlled by machine during the general anesthesia. The animal underwent two consecutive PET scans. The PET ligand was administered i.v. at doses too low to have a pharmacodynamic effect (i.e. total dose of 0.16 and 0.25 μg). Before the start of the second PET scan, 10 mg/kg of compound A-1 was administered to the animal using an oral gavage tube.

mice = assay: EEG assessment of sleep behavior and vigilance stage; assay type: in vivo; details: for Active wake (β and γ frequencies), mean difference drug-vehicle / NREM (δ frequency), mean difference drug-vehicle / Quiet wake (α frequency), mean difference drug-vehicle / REM (θ frequency), mean difference drug-vehicle: 30 mg/kg oral
Method: Animals have temporal skull EEG electrodes implanted which are connected to transmitters. Animals were group-housed (2-4) per cage at a constant temperature of 22±1° C., on a 12:12 light-dark schedule. The EEG is recorded via a receiver and stored on a PC for further analysis. EEG is used to assess and to quantify sleep behavior and vigilance stage.
Animals were given a 1-day period of acclimatization in the recording cages with recording cables connected. On the 1st day of the experiment, EEG recordings were made continuously during a 22-hours period beginning at 11 A.M., 15 min after vehicle administration. On the second day of the experiment, EEG recordings were carried out in the same way, but 15 minutes after drug administration. In this way, each animal served as its own control. 10 animals were recorded from simultaneously in each experiment. Automatic evaluation of the nycthemeral cycle (REM sleep, classical sleep, wakefulness and an awake non-vigilant state termed “drowsiness”) was performed as described (Vigouret et al., 1978 Pharmacology 16 Suppl 1:156-73). In the present context, “quiet wake” and “active wake”, describe conscious animals in a resting and an active state, respectively, while “REM” and “NREM” represent sleep states.
FIG. 3 depicts the effects of 30 mg/kg compound B-1, orally administered 6 h after lights on (9:00) in mice (n=10) on quiet wake (α frequency, 9.5-12.5 Hz), active wake (β frequency, 12.5-30.5 Hz; and γ frequency, >30.5 Hz), REM sleep (θ frequency, 4.5-9.5 Hz) and NREM sleep (δ frequency, <4.5 Hz). Assessment period shown is 3 hours.

orexin-deficient mice = assay: Orexin-deficiency model: number of narcoleptic episodes (behavioral arrests); assay type: in vivo
Description: Male transgenic mice with a knockout of the orexin peptide gene are used. Orexin-deficient mice express a phenotype with cataplexy events (observed as ‘behavioral arrests’) and a disrupted sleep pattern including fragmented sleep and sleepiness in their active period.
The animals are observed and videotaped via infrared cameras during the first hours of the lights-off period which is the active phase of nocturnal rodents like mice. At this time, orexin-deficient mice show the most ‘behavioral arrests’. The number of these events can be furthermore increased by presenting a new environment. For this purpose, new saw dust, a running wheel, marbles and tunnels are placed in the test environment. The number of ‘behavioral arrests’ are offline counted by the experimenter for each hour of recording. Behavioral arrests were defined by phases of total inactivity outside the next box, which last longer than 10 second, preceded and followed by robust locomotor activity (see also Scammell et al., 2009, Sleep 32(1): 111-116). Some of the animals have temporal skull EEG electrodes implanted which are connected to transmitters. The EEG is recorded via a receiver and stored on a PC for further analysis. EEG is used to assess and to quantify sleep behavior and vigilance stage.
A cross-over design is used because of the high inter- and intra-individual variability of the behaviors to be observed. Furthermore, to avoid habituation to the test environment, the animals are only tested once per week in the test environment. During the remaining days, the animals are in their homecage.
For each experimental session, 3-4 mice are put into the test environment 3 hours before lights-off. The first experimental session (week 1) is used to get a baseline (without treatment). The second and third sessions (weeks 2+3) are used for treatment (vehicle & compound, cross-over design, administration 5 minutes before lights-off). The fourth and last experimental session is again without treatment to evaluate a post-treatment baseline.

[1] = cited from earlier work
[2] = 30 mg/kg oral 6 h after lights on, 3 hours assessment

C[C@H](OC(=O)N[C@@H]1CN2CCC1CC2)c1ccccc1F [A-1, (S)-(1-aza-bicyclo[2.2.2]oct-3-yl)-carbamic acid (S)-1-(2-fluoro-phenyl)-ethyl ester]
brain tMHA levels (brain tMHA levels; 10 mg/kg dose): significant elevation
change in breathing behavior (sign for emergence from general anesthesia) (Cynomolgus monkey; 10 mg/kg oral gavage, fifteen minutes after administration, sevoflurane 2.9%): shallow breathing was observed
doses of sevoflurane necessary to maintain anesthesia after the compound (Cynomolgus monkey; rest of experiment (about two hours) after 10 mg/kg oral, 2.6-2.9% before the compound): 3.0-3.7%

Cc1ccc(-c2ccc(O[C@H]3CN4CCC3CC4)cn2)cc1 [B-1, (R)-3-(6-p-tolyl-pyridin-3-yloxy)-1-aza-bicyclo[2.2.2]octane]
effect on NREM sleep (mice; [2]): decline of NREM sleep
effect on time spent in quiet wake (mice; [2]): increases the time spent in quiet wake
Active wake (β and γ frequencies), mean difference drug-vehicle (mice; time point 9:30): 0.9 min
NREM (δ frequency), mean difference drug-vehicle (mice; time point 9:30): -12.4 min
Quiet wake (α frequency), mean difference drug-vehicle (mice; time point 9:30): 14.3 min
REM (θ frequency), mean difference drug-vehicle (mice; time point 9:30): -2.2 min
Active wake (β and γ frequencies), mean difference drug-vehicle (mice; time point 10:30): 3.6 min
NREM (δ frequency), mean difference drug-vehicle (mice; time point 10:30): -7.1 min
Quiet wake (α frequency), mean difference drug-vehicle (mice; time point 10:30): 6.1 min
REM (θ frequency), mean difference drug-vehicle (mice; time point 10:30): -2.1 min
Active wake (β and γ frequencies), mean difference drug-vehicle (mice; time point 11:30): 0.1 min
NREM (δ frequency), mean difference drug-vehicle (mice; time point 11:30): 2.1 min
Quiet wake (α frequency), mean difference drug-vehicle (mice; time point 11:30): -1.8 min
REM (θ frequency), mean difference drug-vehicle (mice; time point 11:30): -0.9 min
Active wake (β and γ frequencies), mean difference drug-vehicle (mice; time point 12:30): 0.3 min
NREM (δ frequency), mean difference drug-vehicle (mice; time point 12:30): -0.1 min
Quiet wake (α frequency), mean difference drug-vehicle (mice; time point 12:30): -0.9 min
REM (θ frequency), mean difference drug-vehicle (mice; time point 12:30): -0.2 min
decrease of number of narcoleptic episodes, first hour of the observation period (orexin-deficient mice; 10 mg/kg orally directly before lights-off, p<0.05 Anova): ca. 66%
brain tMHA levels (brain tMHA levels; all doses tested): significantly elevated

C[C@H]1[C@H](Oc2ccc(-c3ccc4[nH]ccc4c3)nn2)C2CCN1CC2 [B-4, (2S,3R)-3-[6-(1H-indol-5-yl)-pyridazin-3-yloxy]-2-methyl-1-aza-bicyclo[2.2.2]octane]
decrease of number of narcoleptic episodes, whole 4 hours observation period (orexin-deficient mice; 3 mg/kg orally directly before lights-off, p=0.03): ca. 25%
reduction of number of narcoleptic episodes, first hour (orexin-deficient mice; 3 mg/kg orally directly before lights-off, p=0.04): ca. 47%

CCCC(C)C1(CC)C(=O)NC(=S)NC1=O (centres unmarked) [thiopentone]
dose remaining in the body ([1]; at 24 hours): ≤ 30%
elimination by oxidative metabolism in the liver, rate ([1]; in vivo): 15 % per hour
elimination half-life ([1]; in vivo): 3.4 to 22 h
initial drug effect terminated by redistribution, time ([1]; in vivo): 5 to 15 min
